Measurements: patent US20060188913A1, “Methods and products for enhancing immune responses using imidazoquinoline compounds” (University of Iowa Research Foundation, priority 2001, published 2006)

Experiments:
Format in all cases: cell-based
hTLR9 [1] = target: T1, hTLR9 (Homo sapiens, UniProt Q9NR96, H530R/Q688R); assay: NF-kappa B luciferase activation in stably transfected 293-TLR9-Luc cells
T1 construct: 293-TLR9-Luc cells contain a genomic copy of the hTLR9 open reading frame and the NF-kappa B-luciferase cassette; expressed in transfected cells; host or cells: 293-TLR9-Luc (stably transfected human embryo kidney 293 cells)
T1 sequence (Q9NR96 26-1032 H530R/Q688R): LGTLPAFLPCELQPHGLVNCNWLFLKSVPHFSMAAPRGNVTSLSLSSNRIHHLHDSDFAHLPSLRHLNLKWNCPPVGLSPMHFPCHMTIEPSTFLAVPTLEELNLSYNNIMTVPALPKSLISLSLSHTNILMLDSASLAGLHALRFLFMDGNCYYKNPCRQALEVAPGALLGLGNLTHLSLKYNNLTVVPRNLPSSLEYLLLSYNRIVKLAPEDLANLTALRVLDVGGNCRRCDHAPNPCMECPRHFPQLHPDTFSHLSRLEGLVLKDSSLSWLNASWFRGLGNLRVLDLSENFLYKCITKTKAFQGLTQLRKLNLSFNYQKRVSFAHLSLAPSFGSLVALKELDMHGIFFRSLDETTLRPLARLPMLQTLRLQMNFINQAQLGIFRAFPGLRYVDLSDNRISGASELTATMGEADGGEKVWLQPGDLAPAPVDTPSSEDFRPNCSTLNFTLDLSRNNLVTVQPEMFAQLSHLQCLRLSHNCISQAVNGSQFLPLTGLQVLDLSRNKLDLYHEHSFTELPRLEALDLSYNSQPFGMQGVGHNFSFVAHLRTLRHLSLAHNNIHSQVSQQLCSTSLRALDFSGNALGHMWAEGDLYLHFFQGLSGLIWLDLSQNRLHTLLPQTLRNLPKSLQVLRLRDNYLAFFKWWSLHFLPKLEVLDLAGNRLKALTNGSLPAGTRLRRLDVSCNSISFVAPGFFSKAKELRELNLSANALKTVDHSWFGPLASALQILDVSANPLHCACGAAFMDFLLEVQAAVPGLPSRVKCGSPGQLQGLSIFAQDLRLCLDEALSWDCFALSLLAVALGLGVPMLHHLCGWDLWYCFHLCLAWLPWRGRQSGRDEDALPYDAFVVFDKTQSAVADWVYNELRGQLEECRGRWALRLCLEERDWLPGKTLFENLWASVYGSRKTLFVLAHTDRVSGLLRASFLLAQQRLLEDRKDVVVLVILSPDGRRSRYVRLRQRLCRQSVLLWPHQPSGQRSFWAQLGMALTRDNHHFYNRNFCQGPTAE
Description: (§1) Cells used for transfections were 293T (human embryo kidney cells, T-antigen transfected) or 293-TLR9-Luc (stable transfectants, human embryo kidney cells expressing the human TLR9 receptor and containing a genomic NF-kappa B-luciferase cassette).
(§2) Stimulation was performed 24 h after transfection. Medium of the cells was reduced to 1 ml (without medium change) and cells were stimulated with indicated amounts of R-848, LPS, ODN 8954, 2006 and IL-1 beta for 16 h.
(§3) Cell extracts were prepared by lysing the cells in 100 μl reporter lysis buffer using the freeze-thaw method. NF-kappa B stimulation was measured through luciferase activity (Promega). All data were normalized for beta-gal expression. Stimulation indices were calculated in reference to luciferase activity of medium without addition of ODN.
Since R-848 has immune modulatory properties, this experiment examined whether R-848-mediated immune responses are hTLR9-dependent. Cells stably transfected with hTLR9 and a NF-kappa B reporter construct (293-TLR-Luc cells) were incubated for 16 hours with IL-1, CpG ODN 2006, control non-CpG ODN 1982 (5′ […] 3′, SEQ ID NO:3), or increasing amounts of R-848. NF-kappa B activation was determined by measurement of luciferase activity. Activity is given in x-fold activation compared to luciferase activity in medium control.

hTLR9 [2] = target: T1, hTLR9; assay: NF-kappa B luciferase activation in 293T cells transiently transfected with hTLR9; settings: hTLR9-transfected 293T cells, positive control for transfection
Description: as §1
Transfections were performed in six-well plates. Cells were plated the day before transfection at 4×10^5/well in DMEM+10% FCS.
Constructs: TLR cDNAs were cloned into pcDNA3.1. NF-kappa B activation was measured by using an 5× NF-kappa B-Luciferase construct (Stratagene). Transfection efficiency was determined by using a beta-galactosidase (beta-gal) reporter construct (p beta-Gal-Control, Clontech).
as §2, §3
293T cells, stably transfected with a NF-kappa B-luciferase reporter construct, were transiently transfected with plasmids (pcDNA3.1 constructs) coding for full length hTLR2, hTLR7, hTLR8 and hTLR9. […]

human PBMC [3] = assay: IL-6 secretion by human PBMC (ELISA), with or without chloroquine; settings: 10 μg/ml chloroquine, 24 h, IL-6, FIG. 9
Description: Vasilakos J P et al. (2000) Cell Immunol 204:64-74. Human PBMC (n=3) were cultured for 24 h with varying concentrations of R-848 ([…]), varying concentrations of CpG ODN 2006 (0.8-6.0 μg/ml), SEB (50 ng/ml), or media alone. […] IL-6 in the supernatants was measured by ELISA. […] TLR9 is believed to have intracellular expression only.

human PBMC [4] = assay: IP-10 secretion by human PBMC (ELISA); settings: 48 hours, ODN 0.2-3.0 μg/ml versus R-848 0.01-1.0 μg/ml, FIG. 6A
Description: This experiment investigated the induction of the Th1 cytokine IFN-gamma as well as the Th1-related chemokine IP-10 (IFN-gamma inducible protein). Unfractionated human PBMC from three donors were incubated for 48 hours in the presence of varying concentrations of R-848 (0.01-1.0 μg/ml), varying concentrations of CpG ODN 2006 (0.2-3.0 μg/ml), varying concentrations of negative control ODN 5177 (0.2-3.0 μg/ml), SEB (50 ng/ml), or media alone, and then the concentrations of IP-10 and IFN-gamma in the supernatant were measured by ELISA.
In FIG. 6B, the combined effects of R-848 and CpG ODN (e.g., #2006) on IP-10 secretion are shown. Human PBMCs from three different donors were incubated for 48 hours with the indicated concentrations of ODNs and R-848, either individually or together. Supernatants were harvested and IP-10 was measured by ELISA. The data represent mean cytokine amounts.

Substance: CpG ODN 2006
- NF-kappa B activation (x-fold activation compared to luciferase activity in medium control) (hTLR9 [1]; 293-TLR-Luc cells, 16 hours, 1 to 12 μg/ml): 10- to 30 fold
- hTLR9-mediated NF-kappa B activation (in words) (hTLR9 [1]; cells expressing hTLR9 alone, 293-TLR-Luc with pcDNA (empty vector)): hTLR9-mediated activation of NF-kappa B by CpG ODN 2006
- NF-kappa B activation (hTLR9 [2]): 3 fold
- inhibition of the stimulant's activity by chloroquine (in words) (human PBMC [3]): completely abolish
- IP-10 induction (human PBMC [4]): induced similar amounts of IP-10 compared to R-848
